# Results taken from US9353116B2, “Methods and compositions for kinase inhibition” (THE REGENTS OF THE UNIVERSITY OF CALIFORNIA, priority 2010, dated 2016).
# Where two headings read alike, the source gives them in different places.
# What was measured:
# T338C c-Src [1] = biological target: T1, T338C c-Src (Gallus gallus (Chicken), UniProt P00523, T338C); experiment: Full protein mass spectrometry of covalent labeling; type: binding; details: two equivalents of inhibitor
# Experimental: Protein labeling conditions: Kinase labeling reactions were performed by incubating 30 μL quantities of c-Src variants (in 50 mM Tris pH 8, 100 mM NaCl, 1 mM DTT, 5% glycerol) with two equivalents of inhibitor in DMSO (final DMSO concentration=2.4%). The covalent labeling reaction was quenched by removing 4 μL and adding it to 31 μL of 0.1% formic acid. The sample was then analyzed by ES1-oa-TOF mass spectrometry.
# c-Src-ES2 (T338C/V323A) = c-Src-ES2 (T338C/V323A) (Gallus gallus (Chicken), UniProt P00523, T338C/V323A); experiment: In vitro kinase assay, c-Src-ES2; type: biochemical
# Experimental: (§1) In vitro kinase assays for c-Src variants were performed in 50 mM Tris (pH 8.0), 10 mM MgCl2 and 1 mg/mL BSA. When obtaining kinetic parameters (kcat, Km) kinase and peptide substrate (IYGEFKKK) (SEQ ID NO:51) concentrations were 2 nM and 500 μM, respectively, while ATP concentrations ranged from 2000-0.655 μM. Addition of nonradioactive ATP supplemented with ^32P ATP (3,000 Ci/mmol, NEN) was used to initiate kinase reactions. Time points were selected such that product formation never exceeded 10%. Reactions were quenched by spotting 3 μL quantities onto phosphocellulose sheets (P81, Whatman). Afterwards, the sheets were washed 3×5 minutes in 0.5% phosphoric acid and dried. Radioactivity was measured by phosphorimaging and recorded on a Typhoon fluorescence imager (Molecular Dynamics). Data were plotted as rate (min^−1) versus ATP concentration and fitted to the Michaelis-Menten equation, v=[(kcat)[S]]/(Km+[S]), using Kaleidagraph software (Synergy) to extract kinetic parameters. When obtaining IC50 values for the inhibitors, 2% (v/v) DMSO was included in kinase reactions. In these cases ATP, peptide, and enzyme concentrations were 15 nM, 100 μM and 5 nM, respectively, while inhibitor concentrations ranged from 10,000-0.610 nM. In all cases, a ten-minute preincubation step between the kinase and the inhibitor preceded addition of ATP and a fifteen-minute reaction. The data was fitted to a sigmoidal dose-response curve using Prism 4.0c (GraphPad Software) to obtain IC50 values.
# T338C c-Src [2] = biological target: T1, T338C c-Src; experiment: In vitro kinase assay, T338C c-Src (c-Src-ES1); type: biochemical
# Experimental: as §1, with “In all cases, a ten-minute preincubation step between the kinase and the inhibitor preceded addition of ATP and a fifteen-minute reaction.” left out
# c-Src-ES3 (T338C/V323S) = c-Src-ES3 (T338C/V323S) (Gallus gallus (Chicken), UniProt P00523, T338C/V323S); experiment: In vitro kinase assay, c-Src-ES3; type: biochemical; details: ES3 = T338C/V323S; read-out: c-Src variant IC50 (nM) ES3
# Experimental: as §1
# v-Src-ES1 (I338C) = v-Src-ES1 (I338C) (Rous sarcoma virus (strain H-19), UniProt P25020, I338C); experiment: Inhibition assay with v-Src-ES1 transformed NIH-3T3 cells; type: cell-based
# Experimental: (§2) Curr Biol 8(5):257-266. Cells were grown to 60-90% confluence in DMEM supplemented with fetal bovine serum (10%), penicillin ‘G’ (100 units/ml) and streptomycin sulfate (100 μg/ml) (PenStrep, UCSF Cell Culture Facility) prior to treatment with kinase inhibitors dissolved in DMSO (final DMSO concentration, 0.5%). Following 1 hour of incubation with inhibitors at 37° C., cells were harvested in lysis buffer (50 mM Tris (pH 7.4), 300 mM NaCl, 5 mM EDTA, 1% triton, 0.02% NaN3, 1× complete mini protease inhibitor (Roche), 1 mM PMSF, 1×PHOS-stop (Roche), 0.02 μM microcystin, 2 mM sodium orthovanadate), normalized for concentration and analyzed by Western blot for global phosphotyrosine levels (4G10, Millipore, 1:1000). Levels of β-actin (β-actin Antibody, Cell Signaling, 1:1000) and v-Src (Src 32G6 rabbit mAb, Cell Signaling, 1:1000) were ascertained by Western blot.
# (§3) I338C (v-Src-ES1, SEQ ID NO:48), I338T (SEQ ID NO:49), I338G (v-Src-AS1, SEQ ID NO:50) and WT v-Src-transformed NIH-3T3 cell lines were generated. Unlike c-Src, v-Src is constitutively active and harbors an isoleucine gatekeeper. The I338T v-Src variant was generated for consistency with the in vitro c-Src studies. For each cell line, global levels of phosphotyrosine were analyzed (FIG. 7). […]
# 307 kinases = experiment: Kinome-wide profiling (SelectScreen Kinase Profiling Service); type: biochemical; details: compounds at 1 μM, ATP at Km,app
# Experimental: The percent inhibition results in FIG. were generated with biochemical enzymatic kinase assays using the SelectScreen® Kinase Profiling Service (Life Technologies Corporation, Madison, Wis.). Compounds were assayed at 1 μM at an ATP concentration equal to the ATP Km,app for the assay following the detailed procedures described in the SelectScreen® Customer Protocol and Assay Conditions documents located at www.invitrogen.com/kinaseprofiling.
# Compounds that were profiled include, but are not limited to, 3, 4, 9, 13, and 20. […] The exocyclic amine mimics N6 of ATP and plays an important role in a hydrogen bonding interaction with the hinge region of kinases.
# I338T v-Src = I338T v-Src (Rous sarcoma virus (strain H-19), UniProt P25020, I338T); type: cell-based
# Experimental: as §2, §3
# WT c-Src [3] = biological target: T2, WT c-Src (Gallus gallus (Chicken), UniProt P00523); experiment: In vitro kinase assay, WT c-Src; type: biochemical; details: inhibitor preincubated with Src ten minutes prior to addition of ATP; read-out: WT c-Src IC50
# Experimental: as §1
# WT c-Src [4] = biological target: T2, WT c-Src; experiment: Gel filtration and kinetic assay, WT c-Src; type: biochemical; details: 23 μM inhibitor, 25 minutes, then PD10 desalting
# Experimental: (§4) Inhibitors (final concentration 23 μM) were incubated with c-Src variants (final concentration 11.5 μM) in kinase reaction buffer (50 mM Tris pH 8, 100 mM NaCl, 1 mM DTT, 5% glycerol, 5% DMSO) for 25 minutes at room temperature. The solutions (2.6 mL total) were then passed over PD10 desalting columns (GE Healthcare) using the kinase reaction buffer for elution. Src concentrations were calculated using the extinction coefficient for c-Src (51.140 mM^−1cm^−1) {Seeliger, 2005 #100}. Kinase assays were performed as described in the experimental section at a final enzyme concentration of 10 nM.
# T338C c-Src [5] = biological target: T1, T338C c-Src; experiment: Gel filtration and kinetic assay, T338C c-Src; type: biochemical; details: 23 μM inhibitor, 25 minutes, then PD10 desalting
# Experimental: as §4
# Toxicity profiles (LD50) = details: FIG. 17-19
# [6] = inhibitor preincubated with Src ten minutes prior to addition of ATP, read-out: T338C c-Src IC50
SMILES,covalent labeling / adduct formation by full protein mass spectrometry (T338C c-Src [1]),"IC50 (c-Src-ES2 (T338C/V323A); ES2 = T338C/V323A, read-out: c-Src variant IC50 (nM) ES2) [nM]",change of inhibitor potency upon second-site Val323 mutations (c-Src-ES2 (T338C/V323A); c-Src-ES2 and c-Src-ES3 relative to c-Src-ES1),time dependence of inhibition of T338C c-Src (T338C c-Src [2]),"IC50 (T338C c-Src [2]; ES1 = T338C, read-out: c-Src variant IC50 (nM) ES1) [nM]","IC50 (T338C c-Src [2]; T338C c-Src IC50 (nM), preincubation time 2 min) [nM]","IC50 (T338C c-Src [2]; T338C c-Src IC50 (nM), preincubation time 20 min) [nM]","IC50 (T338C c-Src [2]; T338C c-Src IC50 (nM), preincubation time 40 min) [nM]",IC50 (T338C c-Src [2]; [6]) [nM],IC50 (c-Src-ES3 (T338C/V323S)) [nM],inhibition of v-Src-ES1 in cells (global phosphotyrosine levels) (v-Src-ES1 (I338C)),off-target profile in kinome-wide screen (307 kinases),inhibition of I338T v-Src in cells (global phosphotyrosine levels) (I338T v-Src),IC50 (WT c-Src [3]) [nM],"inhibitory activity after gel filtration, WT c-Src (WT c-Src [4])","inhibitory activity after gel filtration, T338C c-Src (T338C c-Src [5])",LD50 (Toxicity profiles (LD50)) [µM]
"C=CS(=O)(=O)Nc1cccc(Cc2nn(C(C)C)c3ncnc(N)c23)c1 [Compound 9, N-(3-((4-amino-1-isopropyl-1H-pyrazolo[3,4-d]pyrimidin-3-yl)methyl)phenyl)ethenesulfonamide]",specific labeling of T338C relative to WT c-Src,207,not modulated appreciably,time-dependent manner,150,981,309,138,150,424,inhibited v-Src-ES1 in a dose-dependent manner,relatively few off-target effects,neither 9 nor 13 inhibited I338T v-Src,> 5000,lost,retained,–
"C=CS(=O)(=O)Nc1cccc(Nc2ncnc3cc(OC)c(OC)cc23)c1 [Compound 19, N-(3-(6,7-dimethoxyquinazolin-4-ylamino)phenyl)ethenesulfonamide]",–,–,–,–,–,–,–,–,1000,–,–,–,–,> 5000,–,–,3.92
